Assay results reported in patent publication US6121287A, “Quinoline derivatives” (Active Biotech AB, priority 1999, dated 2000).
Where two headings read alike, the source gives them in different places.

Columns and labels:
[1] = tested on: foetuses of pregnant female rats; assay: Teratogenic Effects in the Rat; assay type: in vivo; conditions: 6 mg/kg/day (dose given for the N-methyl-N-phenyl compound), subcutaneous, day 8 to 14 of pregnancy
From the text: Teratogenic Effects in the Rat
The compounds were administrated subcutaneously to female rats during pregnancy, i.e., day 8 to 14 of pregnancy. The rats were caesarean sectioned and necropsied on day 20 after fertilization. The foetuses were examined for external and internal abnormalities.

[2] = tested on: acute experimental autoimmune encephalomyelitis (aEAE); assay: inhibition of acute experimental autoimmune encephalomyelitis (aEAE) in mice; assay type: in vivo, mice (STUN female); conditions: for % aEAE Inhibition: percent inhibition of clinical scores vs saline treated controls
beagle dogs = conditions: different breeds of beagle dogs; cited from earlier work
[3] = tested on: foetuses of pregnant female rats; conditions: rat; background statement; cited from earlier work
cell-mediated immunity = conditions: cited from earlier work
multiple sclerosis = conditions: cited from earlier work

Row | SMILES | teratogenic effect [1] | % aEAE Inhibition ([2]; 0.04 mg/kg p.o.) [%] | % aEAE Inhibition ([2]; 0.2 mg/kg p.o.) [%] | % aEAE Inhibition ([2]; 1 mg/kg p.o.) [%] | also measured
1 | CCN(C(=O)c1c(O)c2c(SC)cccc2n(C)c1=O)c1ccccc1 [Compound A, N-ethyl-N-phenyl-1,2-dihydro-4-hydroxy-5-thiomethyl-1-methyl-2-oxo-quinoline-3-carboxamide] | non-teratogenic | 28 | 49 | – | –
2 | CSc1cccc2c1c(O)c(C(=O)N(C)c1ccccc1)c(=O)n2C [N-methyl-N-phenyl-1,2-dihydro-4-hydroxy-5-thiomethyl-1-methyl-2-oxo-quinoline-3-carboxamide] | teratogenic | – | – | – | –
3 | CCN(C(=O)c1c(O)c2cc(SC)ccc2n(C)c1=O)c1ccccc1 [Compound C, N-ethyl-N-phenyl-1,2-dihydro-4-hydroxy-6-thiomethyl-1-methyl-2-oxo-quinoline3-carboxamide] | – | 0 | 23 | – | –
4 | CSc1ccc2c(c1)c(O)c(C(=O)N(C)c1ccc(F)cc1F)c(=O)n2C [Compound D, N-methyl-N-(2,4difluoro-phenyl)-l,2-dihydro-4-hydroxy-6-thiomethyl-1-methyl-2-oxo-quinoline-3-carboxamide] | – | – | 0 | 66 | –
5 | CSc1cccc2c1c(O)c(C(=O)N(C)c1ccc(F)cc1F)c(=O)n2C [Compound B, N-methyl-N-(2,4-difluoro-phenyl)-1,2-dihydro-4-hydroxy-5-thiomethyl-1-methyl-2-oxo-quinoline-3-carboxamide] | non-teratogenic | – | 67 | 97 | –
6 | CN(C(=O)c1c(O)c2ccccc2n(C)c1=O)c1ccccc1 [Roquinimex, roquinimex] | – | – | – | – | Beagle Pain Syndrome (BPS) induction (beagle dogs): induce the Beagle Pain Syndrome (BPS); teratogenic effect [3]: teratogenic in the rat; immunomodulatory activities (cell-mediated immunity): multiple immunomodulatory activities not accompanied with general immunosuppression; clinical efficacy in conditions associated with MS (multiple sclerosis; clinical trials comparing roquinimex to placebo): hold promise in the treatment of conditions associated with MS; dose-limiting side effects in man (multiple sclerosis; man): induces dose-limiting side effects in man, e.g., a flu-like syndrome; inhibition of aEAE (treatment control) ([2]; at ≥5 mg/kg, mice): more than 50%
